Data set [1] concerns Huh-luc/neo-ET HCV genotype Ib replicon cells. Type of data set: cell-based. The settings on record: selection with G418, 28 days. The procedure:
Cell culture and Assay setup: The reporter cell line Huh-luc/neo-ET was obtained and prepare as described previously. Cells were plated into 10 cm tissue culture dishes at a density of 3×10^5 cells per plate in culture medium containing 250 μg/ml G418 and incubated for 24 hours at 37° C. in an environment of 5% C02. Following the 24 hour incubation, dilutions of SPC3649, SPC4729, or telaprevir were prepared in cell culture medium (as above) with 750 μg/ml G418. Each of the dilutions was added to duplicate plates and the plates were incubated at 37° C. in an environment of 5% CO^2. Two additional plates received cell culture medium with 750 μg/ml G418 as a no-treatment control. […] The final concentration of SPC4729 was 10.0 μM. […] Following 28 days of passage, one set of dishes was stained with crystal violet and the other set of plates was utilized for expansion and establishment of resistant cell culture stocks.
Huh-luc/neo-ET HCY genotype Ib replicon cells were cultured under selective pressure in the presence of 750 μg/mL G4 I8 with and without four independent fixed concentrations of SPC3649 anti-miR oligonucleotide, or telaprevir, or one concentration of scrambled oligonucleotide SPC4729 for 28 days in tissue culture plates. Duplicate tissue culture dishes were established and maintained for each culture condition. Medium was replaced bi-weekly during the 28 days of culture and the cells were split at the time of medium replenishment to maintain a confluent cell culture monolayer. Following four weeks in culture, cells were either fixed with methanol and stained with crystal violet or expanded for subsequent phenotypic and genotypic characterization.

Data set [2] has as its system HCV genotype Ib replicon (I389luc-ubi-neo/NS3-3′/ET) in Huh-luc/neo-ET cells. Type of data set: cell-based. The procedure: (§1) The anti-viral efficacy and cellular toxicity of non-transfected antimiR oligonucleotide in combination with approved and experimental anti-HCV therapeutics (e.g. NM283, 2′-C-methylcytidine, and/or VX-222) (or other NS5B polymerase inhibitors) was determined in the reporter cell line Huh-luc/neo-ET. This cell line harbors the persistently replicating I389luc-ubi-neo/NS3-3′/ET replicon containing the firefly luciferase gene-ubiquitin-neomycin phosphotransferase fusion protein and EMCV IRES driven NS3-5B HCV coding sequences containing the ET tissue culture adaptive mutations (E1202G, T1208I, and K1846T). Eight dilutions of non-transfected antimiR oligonucleotide (bracketing the calculated EC50) were evaluated in triplicate on duplicate sets of three plates with five dilutions of each of the control compounds (bracketing the calculated EC50). One set of plates was used for the determination of cellular toxicity and the other set of plates was used for the determination of anti-viral efficacy. The efficacy and toxicity results was quantified with firefly luciferase activity and XTT dye reduction, respectively, and the results of the assay is imported into the Prichard and Shipman MacSynergy II software program. The MacSynery II analysis includes calculation of the dose response of the two (or more) compounds when used alone followed by calculation of the expected additive level of antiviral inhibition or toxicity when the compounds are used together based on the individual dose response curves. The expected level of activity at each of the concentration data points was compared to the experimentally determined antiviral activity in the assay. The expected activity was subtracted from the realized activity, yielding a negative, zero or positive value. These values are plotted as a three dimensional representation of the data and the result is reported as a two-factor value, expressing the combined average above the expected level of activity (synergy volume) and the combined average below the expected level of activity (antagonism volume). Combination analysis was performed two or more times for each pair of test compound and control substance.
(§2) The reporter cell line Huh-luc/neo-ET was obtained from Dr. Ralf Bartenschlager (Department of Molecular Virology, Hygiene Institute, University of Heidelberg, Germany) by ImQuest BioSciences. This cell line harbors the persistently replicating 1389luc-ubi-neo/NS3-3′IET replicon containing the firefly luciferase gene-ubiquitinneomycin phosphotransferase fusion protein and EMCV IRES driven NS3-5B HCV coding sequences containing the ET tissue culture adaptive mutations (E 1202G, T12081, and KI846T). A stock culture of the Huh-luc/neo-ET was expanded by culture in DMEM supplemented with 10% FBS, 2 mM glutamine, penicillin (100 IU/mL)/streptomycin (100 f·Ig/mL) and IX nonessential amino acids plus I mg/ml G418. Prior to plating, the cells were split 1:4 and cultured for two passages in the same medium plus 250 f·Ig/mL G418. The cells were treated with trypsin and enumerated by staining with trypan blue and seeded into 96-well tissue culture plates at a cell culture density 5.0×10^3 cells per well in a volume of 85 f·IL per well and incubated at […] in an environment of 5% CO2 for 24 hours. Six plates were established for the determination of combination efficacy (EC50) and cytotoxicity (TC50) for each of the compound combinations (three plates each for efficacy and toxicity). Following the 24 hour incubation, eight 2-fold serial dilutions of SPC3649 in cell culture medium without G418 were prepared (final in well high test concentration of 1.20 μM to 2.40 μM) and added to the cells and five 2-fold or 5-fold serial dilutions of control compounds in cell culture medium without G418 were prepared and added to the cells.

The subject of the next data set is Huh-luc/neo-ET cells. Kind of data set: Cellular toxicity by XTT dye reduction in Huh-luc/neo-ET cells. The procedure: as §1
as §2, with “Following the 24 hour incubation, eight 2-fold serial dilutions of SPC3649 in cell culture medium without G418 were prepared (final in well high test concentration of 1.20 μM to 2.40 μM) and added to the cells and five 2-fold or 5-fold serial dilutions of control compounds in cell culture medium without G418 were prepared and added to the cells.” left out

Data set [3] deals with HCV genotype 1b replicon NS5B M423I. Type of data set: cell-based. The settings on record: EC50 mutant / EC50 wild-type; mean of two experiments (individual values). As to the method:
(§3) The in vitro antiviral of miravirsen was evaluated against wild-type HCV genotype 1b replicon and HCV genotype 1b replicons constructed to contain key amino acid substitutions in NS3 protease (A156T, R155K), NS5B polymerase (S282T, M423I) and NS5A protein (Y93H) in transient transfection assays utilizing Huh 7 cells. […] Huh 7 cells were transfected with either the wild-type or the mutant RNA constructs by electroporation. Luciferase activity was measured 72 hours after compound treatment and EC50 values determined from dose-response curves. Fold resistance was expressed as the ratio of the EC50 for mutant HCV replicon to the EC50 for wild-type HCV replicon.
(§4) The in vitro antiviral of miravirsen was evaluated against wild-type HCV genotype 1b replicon and HCV replicons constructed to contain key amino acid substitutions in NS3 protease (A156T, R155K), NS5B polymerase (S282T, M423I) and NS5A protein (Y93H) in transient transfection assays. […] Huh 7 cells were transfected with either the wild type or the mutant RNA constructs by electroporation. Luciferase activity was measured 72 hours after compound treatment and EC50 values determined from dose-response curves. Fold resistance was expressed as the ratio of the EC50 for mutant HCV replicon to the EC50 for wild-type HCV replicon. Results are expressed as the mean of two individual experiments. In an initial set of experiments, the standard protocol was modified by adding compounds 24 hours after electroporation. […] In a third experiment cells were pretreated with miravirsen for 24 hours before electroporation with wild-type RNA constructs to determine if preincubation could result in increased miravirsen antiviral activity.

For data set [4], the system named is HCV genotype 1b replicon NS5B S282T. The data set is classed as cell-based. The conditions noted are these: EC50 mutant / EC50 wild-type, mean of two experiments (individual values). As to the method:
as §3, §4

In data set [5] the test system is HCV genotype 1b replicon NS3 A156T. The data set is classed as cell-based. The conditions noted are these: EC50 mutant / EC50 wild-type; mean of two experiments (individual values). The procedure: as §3, §4
Data set [6] relates to HCV genotype 1b replicon NS3 R155K. Type of data set: cell-based. The conditions noted are these: EC50 mutant / EC50 wild-type; mean of two experiments (individual values). As to the method:
as §3, §4

The subject of data set [7] is HCV genotype 1b replicon NS5A Y93H. Type of data set: cell-based. The settings on record: EC50 mutant / EC50 wild-type; mean of two experiments (individual values). The procedure:
as §3, §4

Setting [8] is: in combination with ribavirin, 95% confidence level.
The mark [9] stands for this setting: second drug in combination with miravirsen (SPC3649), 95% confidence interval, median (≧3 experiments) or individual values.
Where [10] appears, read: second drug in combination with miravirsen (SPC3649), overall.
[11] abbreviates: second drug in combination with miravirsen (SPC3649), 95% confidence interval, median or individual values.

Values joined by “and” are separate entries in the source; they are usually repeats but may differ in a detail not shown here. Equal values may be shown once. “Also recorded” adds a separate entry of the source. Read-outs that look alike come from different tables or passages of the source.

We go through five compounds from US20140113958A1, “HCV Combination Therapy” (priority 2011, published 2014).

As to “5′-Ts.^ocsAs.^otsas.^mCs.^oTs.^oastsAs.^otsGs.^oas.^mCs.^oA.^o-3′ [SPC4729]”, the “rate of cell expansion” value in data set [1] is listed as “did not decrease the rate of cell expansion”. For the same compound, the “Efficacy, Synergy vol” value in data set [2] is on record as 0.00/−177.6 μM^2%. The overall antiviral interaction result in data set [2] (in combination with ribavirin) is “antagonistic”. The “Efficacy, Antag Vol” value in data set [2] (in combination with ribavirin, 95% confidence level, individual values) is on record as 0.00/−177.6 μM^2%. Further, the “impact of combination on in vitro cytotoxicity” value in the data set with Huh-luc/neo-ET cells (in combination with ribavirin) is “slight higher cytotoxicity”. Besides, in the data set with Huh-luc/neo-ET cells (setting [8]), the “Cytotoxicity, Antag Vol” value is given as −44.3 μM^2% and the “Cytotoxicity, Synergy vol” value is on record as 0.00 μM^2%.

As to `C[C@@]1(O)[C@H](O)[C@@H](CO)O[C@H]1n1ccc(N)nc1=O` [2′-C-Methylcytidine, 2′-C-methylcytidine], the “fold change in susceptibility, NS5B M423I” value in data set [3] was 1.0 (0.9, 1.1) fold. In addition, the “fold change in susceptibility, NS5B S282T” value in data set [4] (listed as 2′Me-C) was 42.8 fold and 45.8 fold; in data set [4] (listed as 2′Me—C) it was 45.8 (49.3, 42.3) fold. For the same compound, in data set [5], the “fold change in susceptibility, NS3 A156T” value is 0.9 (1.0, 0.8) fold. In data set [6], the “fold change in susceptibility, NS3 R155K” value is listed as 0.8 (1.0, 0.6) fold. For the same compound, the “fold change in susceptibility, NS5A Y93H” value in data set [7] is reported as 1.0 (1.2, 0.8) fold. The “interaction in individual assay replicates” value in data set [2] (in combination with SPC 3649, part of the replicates, listed as 2-methyl cytidine) was “positive interactions; also recorded: slightly antagonistic interaction”. Further, the “Efficacy, Antagonism vol” value in data set [2] (setting [9]) is listed as −27.6 μM^2%. Also, the “Efficacy, Synergy vol” value in data set [2] (setting [9]) came out at 0 μM^2%; in data set [2] (second drug in combination with miravirsen (SPC3649), 95% confidence interval, median (≧3 experiments) or individual values, listed as 2-methyl cytidine), 0.0 μM^2%. The Interaction result in data set [2] (setting [10]) is on record as “Positive”; in data set [2] (second drug in combination with miravirsen (SPC3649), overall, listed as 2-methyl cytidine) it was “positive interaction”. Moreover, the “Cytotoxicity, Antagonism vol” value in the data set with Huh-luc/neo-ET cells (setting [11]) is given as −0.67 μM^2%. The “Cytotoxicity, Synergy vol” value with Huh-luc/neo-ET cells (setting [11]) worked out at 0 μM^2%.

In the case of `COC(=O)N[C@H](C(=O)N1CCC[C@H]1c1nc(-c2ccc(-c3ccc(-c4c[nH]c([C@@H]5CCCN5C(=O)[C@@H](NC(=O)OC)C(C)C)n4)cc3)cc2)c[nH]1)C(C)C` [BMS 790052, Dimethyl (2S,2′S)-1,1′-((2S,2′S)-2,2′-(4,4′-(biphenyl-4,4′-diyl)bis(1H-imidazole-4,2-diyl))bis(pyrrolidine-2,1-diyl))bis(3-methyl-1-oxobutane-2,1-diyl)dicarbamate], the “fold change in susceptibility, NS5A Y93H” value in data set [7] was 29.9 fold and 29.9 (32.7, 27.0) fold. Also, in data set [2] (setting [9]), the “Efficacy, Antagonism vol” value was −25.5 μM^2% and −0.1 μM^2% and 0/−24.5; μM^2% and 18.46/−0.06 μM^2%. For the same compound, in data set [2] (setting [10]), the Interaction entry is reported as “Positive”. In addition, in the data set with Huh-luc/neo-ET cells (setting [11]), the “Cytotoxicity, Antagonism vol” value is −21.9 μM^2% and the “Cytotoxicity, Synergy vol” value turned out to be 0 μM^2%.

Turning to `NC(=O)c1ncn([C@@H]2O[C@H](CO)[C@@H](O)[C@H]2O)n1` [Ribavirin, 1-[(2R,3R,4S,5R)-3,4-dihydroxy-5-(hydroxymethyl)oxolan-2-yl]-1H-1,2,4-triazole-3-carboxamide], in data set [2], the Interaction entry is “Positive”, the antagonism volume is listed as −292.6 μM^2% and the “interaction in individual assay replicates” value is “additive interaction; also recorded: highly antagonistic interaction”.

In the case of `CC(C)(C)C#Cc1cc(N(C(=O)[C@H]2CC[C@H](C)CC2)[C@H]2CC[C@H](O)CC2)c(C(=O)O)s1` [VX-222], in data set [3], the “fold change in susceptibility, NS5B M423I” value is 4.4 fold and 4.4 (3.6, 5.2) fold. In data set [2] (setting [9]), the “Efficacy, Antagonism vol” value is −34.4 μM^2% and −4.27 μM^2% and 4.81/−34.44; μM^2% and 0.82/−4.27 μM^2%. Besides, the Interaction result in data set [2] (setting [10]) is given as “Positive”. Besides, in the data set with Huh-luc/neo-ET cells (setting [11]), the “Cytotoxicity, Antagonism vol” value is −28.6 μM^2% and 0 μM^2%; the “Cytotoxicity, Synergy vol” value was determined as 0 μM^2%.
